Literature values in patent US20060078583A1, “Device for delivering an anti-microbial composition” (priority 2004, published 2006).

How the values were obtained:
[1] = tested on: rhinoviral infections (colds); settings: subjects who used iodine products
rhinovirus = settings: on skin

In the case of `II` [iodine], the “number of colds versus placebo users” value [1] is given as “significantly fewer colds than placebo users” and the residual anti-rhinoviral activity (rhinovirus) is given as “provides residual anti-rhinoviral activity on skin”.
